In patent US20240156846A1, “COMPOSITIONS AND METHODS FOR TREATING NEURODEGENERATIVE DISORDERS” (Arizona Board of Regents on Behalf of the University of …, priority 2020, published 2024):
“Also recorded” adds a separate entry of the source.

Columns and labels:
[1] = system: myrosinase; conditions: cited from earlier work
[2] = system: 3xTg AD mice; test: Treatment of 3xTg AD mice: brain Aβ, tau and proteomics; type: in vivo, mouse; conditions: for levels of neurotoxic Aβ42 / ratio of Aβ42 to Aβ40: 3xTg AD mice treated with individual compound; for ratio of p231-tau to total tau: 3xTg mice treated with individual compound
[3] = system: primary cultures of human neurons exposed to Aβ1-42 aggregates; test: Prevention of neuronal loss caused by Aβ1-42 aggregates (MTT assay); type: cell-based; conditions: compounds at 0 h, 24 h, 48 h; 1 μM Aβ1-42 aggregates at 24 h; MTT at 72 h
Protocol: Next, we determined whether these compounds, administered independently or formulated in combination, could protect primary cultures of human neurons against neurotoxic effects of Aβ1-42 aggregates, an in vitro condition relevant to AD pathology. We evaluated both prevention and rescue of neuronal death by NADH, NAD+ and PEITC (FIG. 7). In both experiments, the cultured human neurons were exposed to 1 nM, 10 nM, 100 nM, 1 μM, 10 μM, 20 μM, 40 μM, 50 μM, 75 μM, and 100 μM of each compound, either individually or in equimolar combinations. […] In the prevention experiment, cultures were exposed to fresh compounds every 24 h over the 48 h timeline of this experiment (i.e., 0 h, 24 h, and 48 h) to resemble a pharmacological regimen of once daily dosing. At 24 h, we added 1 μM of Aβ1-42 aggregates to the cell culture media and measured cell viability at 72 h using the MTT assay (Online Method, FIG. 7A). […] In the rescue experiments, primary cultures of human neurons were exposed to 1 μM of Aβ1-42 aggregates at 0 h for a period of 48 h to model existing cellular damage under conditions relevant to AD. After 24 h incubation with Aβ1-42, we added NADH, NAD+, PEITC, NADH/PEITC, and NAD+/PEITC directly to the culture media containing Aβ1-42 and incubated the cultured human neurons for an additional 24 h when cell viability was measured using our MTT assay.
To determine the optimal dosage of the two formulations for neuronal rescue and microglial phagocytosis stimulation, we treated the primary cultures of human neurons and primary cultures of human microglia in the prevention settings respectively with exhaustive combination of individual dosage of 10 μM, 20 μM, 40 μM, 50 μM, 75 μM, and 100 μM.

[4] = system: primary cultures of human microglia exposed to Aβ1-42 aggregates; test: Aβ1-42 uptake (phagocytosis) by microglia, rescue setting; type: cell-based; conditions: 10 dosages tested
Excerpt: There is considerable interest in microglia-targeted therapies for AD, in part due to the phagocytotic functionality of these cells that can promote neuronal recovery and/or repair. Indeed, phagocytosis of insoluble Aβ by microglia can facilitate CNS clearance of Aβ aggregates and limit formation of amyloid plaques (Ronaldson & Davis, 2020). Indeed, Aβ can bind to receptors at the microglial cell surface, an event that can trigger release of proinflammatory cytokines such as TNF-α and IL-1β, factors that are known to cause neuronal damage (Wang et al. 2015). Additionally, Jiang and colleagues discovered that triggering receptor expressed in myeloid cells 1 (TREM1) can promote Aβ phagocytosis by microglia (Jiang et al. 2016). […] To determine if the natural compounds individually or in combination could promote phagocytosis in microglia, we designed prevention and rescue experiments to measure Aβ1-42 uptake in primary cultures of human microglia via intracellular fluorescence (Online method). […] After 24 h, we added 1 μM of Aβ1-42 aggregates to the treated media and measured cell viability at 72 h using the Aβ uptake assay (Online Method, FIG. 8A). […] Uptake of Aβ1-42 was then measured 24 h later (i.e., at the 48 h experimental time point, FIG. 8B).

[5] = rat, in vivo, cited from earlier work
[6] = human subjects, after the consumption of 100 g watercress; cited from earlier work
[7] = system: humanized-Tau (hTau) mice; test: Treatment of humanized-Tau (hTau) mice: brain p231Tau; type: in vivo, mouse
[8] = cited from earlier work

O=S(=O)(O)ON=C(Cc1ccccc1)SC1OC(CO)C(O)C(O)C1F (stereo not drawn) [2-F-2-deoxybenzylglucosinolate]
inhibition of myrosinase [1]: inhibits the enzyme by trapping one of the glutamic acid residues in the active site, Glu 409

NC(=O)c1ccc[n+]([C@@H]2O[C@H](COP(=O)([O-])OP(=O)(O)OC[C@H]3O[C@@H](n4cnc5c(N)ncnc54)[C@H](O)[C@@H]3O)[C@@H](O)[C@H]2O)c1 [NAD+, oxidized nicotinamide adenine dinucleotide]
levels of neurotoxic Aβ42 [2]: significant reduction
ratio of Aβ42 to Aβ40 [2]: significantly reduced; also recorded: significant reduction
ratio of p231-tau to total tau [2]: significantly reduced
prevention of neuronal loss as compared to the negative control condition [3]: significantly prevented neuronal loss
number of dosages that significantly rescued microglial phagocytosis of Aβ1-42 [4]: eight

NC(=O)C1=CN([C@@H]2O[C@H](COP(=O)(O)OP(=O)(O)OC[C@H]3O[C@@H](n4cnc5c(N)ncnc54)[C@H](O)[C@@H]3O)[C@@H](O)[C@H]2O)C=CC1 [NADH, reduced nicotinamide adenine dinucleotide]
levels of neurotoxic Aβ42 [2]: significant reduction
ratio of Aβ42 to Aβ40 [2]: significantly reduced; also recorded: significant reduction
ratio of p231-tau to total tau [2]: significantly reduced
prevention of neuronal loss as compared to the negative control condition [3]: significantly prevented neuronal loss
number of dosages that significantly rescued microglial phagocytosis of Aβ1-42 [4]: three

S=C=NCCc1ccccc1 [PEITC, phenethyl isothiocyanate]
levels of neurotoxic Aβ42 [2]: significant reduction
ratio of Aβ42 to Aβ40 [2]: significantly reduced; also recorded: significant reduction
ratio of p231-tau to total tau [2]: significantly reduced
bioavailability ([5]; po): 90-114%
clearance ([5]; po): low
protein binding ([5]; po): high
bioavailability with repeated dosing [5]: Increased
prevention of neuronal loss as compared to the negative control condition [3]: significantly prevented neuronal loss
peak plasma concentration [6]: about 928.5±250 nM
level of hyperphosphorylated Tau (p231Tau) [7]: significant reduction
ratio of p231Tau to Tau [7]: significant reduction

O=S(=O)(O)O [Sulfate]
inhibition of myrosinase [1]: competitive inhibitor

CN1C(=N)N[C@](C)(c2cc(NC(=O)c3ccc(F)cn3)ccc2F)CS1(=O)=O [Verubecestat]
CSF Aβ levels ([8]; patients with AD / early-stage AD): decrease CSF Aβ levels

C[C@@]1(c2cc(NC(=O)c3ccc(C#N)cn3)ccc2F)C=CSC(N)=N1 [atabecestat]
cognitive assessment scores in treated patients ([8]; phase two clinical trials and long-term safety and tolerability study): trend of worsening cognitive assessment scores

CC(C)[C@H](O)C(=O)N[C@@H](C)C(=O)N[C@@H]1C(=O)N(C)CCc2ccccc21 [semagacestat]
functional or cognitive ability in treated patients ([8]; phase three trial): lack of efficacy and a worsening of function and cognition

OC[C@H]1O[C@@](CO)(O[C@H]2O[C@H](CO)[C@@H](O)[C@H](O)[C@H]2O)[C@@H](O)[C@@H]1O [sucrose, reference compound]
prevention of neuronal loss as compared to the negative control condition [3]: did not prevent any neuronal death
